{"source": "patent US6130053A", "about": "“Method for selecting compounds for inhibition of neoplastic lesions” (priority 1999, dated 2000)", "key": {"β-catenin in SW480 cells": {"test_system": "β-catenin in SW480 cells", "test": "β-catenin level by Western blot in SW480 cells", "type": "cell-based, human", "settings": "48 hours", "experimental": "SW480 cells were treated with exisulind or vehicle (0.1% DMSO) for 48 hours. 50 μg supernatant of each cell lysates were loaded to 10% SDS-gel and blotted to nitrocellulose membrane, and the membrane was probed with rabbit-anti-β-catenin and rabbit anti-PKG antibodies.\nThis observation was made by culturing SW480 cells with either 200-600 μM exisulind or vehicle (0.1% DMSO). The cells are harvested 48 hours post treatment and processed for immunoblotting. Immuno-reactive protein can be detected by western blot. […] Thus, using PKG activity in neoplastia as a screening tool to select compounds as anti-neoplastics is useful."}, "cGMP PDE": {"test_system": "cGMP PDE", "test": "cGMP PDE inhibition assay, enzyme purified from HT-29 cultured tumor cells", "type": "biochemical, human", "quoted_text": "The mixture is incubated at 30° C. for 10 minutes with isolated PDE of this invention. Reactions are terminated, for example, by boiling the reaction mixture for 75 seconds. After cooling on ice, 100 μl of 0.5 mg/ml snake venom (O. Hannah venom available from Sigma) is added and incubated for 10 minutes at 30° C. This reaction is then terminated by the addition of an alcohol, e.g. 1 ml of 100% methanol. Assay samples are applied to 1 ml Dowex 1-X8 column; and washed with 1 ml of 100% methanol. The amount of radioactivity in the breakthrough and the wash from the column is combined and measured with a scintillation counter. The degree of phosphodiesterase inhibition is determined by calculating the amount of radioactivity in drug-treated reactions and comparing against a control sample (a reaction mixture lacking the tested compound but with drug solvent)."}, "[1]": {"test_system": "polyp formation in adenomatous polyposis coli patients", "test": "Human clinical study in APC patients, polyp formation", "type": "in vivo", "experimental": "A human clinical study was performed in APC patients, selecting exisulind in each instance. In that study, each patient had already had his/her colon removed, except for a small section of colon adjacent the rectum (where the small intestine was attached) to preserve rectal function. However, such a patient commonly forms polyps in the small remaining colonic section, which polyps require periodic removal (e.g., by electrocautery).\nThat trial where exisulind was selected was a prevention trial designed to compare the cumulative number of new polyps formed over twelve months by the drug and placebo groups. Eligible patients were those who form between 9 and 44 polyps per year. Patients were fully ablated (had all polyps removed) at the start of the study, at the end of 6 months and at the end of 12 months. The study enrolled thirty-four eligible patients. […] Based on the median number of polyps produced in the first six months of the study, patients treated with exisulind developed approximately one-third the number of polyps as patients treated with placebo (median values 9 polyps/year and 26 polyps/year, respectively; p=0.013). Based on the median number of polyps produced over the entire 12 months of the study, patients treated with exisulind produced approximately half the number of polyps as patients treated with placebo (median values 18 polyps/year and 38 polyps/year, respectively; p=0.020)."}, "[2]": {"test_system": "PKG activity in SW480 cells", "test": "PKG activity in SW480 cells (phosphorylation of GST-cGB-PDE5)", "type": "cell-based, human", "settings": "48 hrs; with and without added cGMP; exisulind 200-600 μM, E4021 0.1-10 μM", "experimental": "Two different types of PDE inhibitors were evaluated for their effects on PKG in neoplastic cells. […], exisulind, was evaluated since it is anti-neoplastic. […] No. 09/173,375 to Liu et al filed Oct. 15, 1998. To test the effect of cGMP-specific PDE inhibition on neoplasia containing the APC mutation, SW480 colon cancer cells were employed. SW 480 is known to contain the APC mutation. […] The liquid media are aspirated from the dishes (the cells will attach themselves to the dishes). […] Immediately after the cell lysis buffer is added, the lysed cells are collected by scraping the cells off each dish. The cell lysate from each dish is transferred to a microfuge tube, and the microfuge tubes are incubated at 4° C. for 15 minutes while gently agitating the microfuge tubes to allow the cells to lyse completely. After lysis is complete, the microfuge tubes are centrifuged full speed (14,000 r.p.m.) for 15 minutes. The supernatant from each microfuge tube is transferred to a fresh microfuge tube. A protein assay is then performed on the contents of each microfuge tube because the amount of total protein will be greater in the control than in the drug-treated samples, if the drug inhibits cell growth. Obviously, if the drug does work, the total protein in the drug-treated samples should be […] control. […]"}, "[3]": {"test_system": "PKG activity in HCT116 cells", "test": "PKG activity in HCT116 cells", "type": "cell-based", "description": "To test the effect of cGMP-specific PDE inhibition on neoplasia containing the β-catenin mutation, HCT116 colon cancer cells were employed. HCT116 is known to contain the β-catenin mutation, but is known not to contain the APC mutation.\nThe same procedure is used to grow the HCT116 cells as is used in the SW480 procedure described above. In this experiment, only exisulind and controls were used."}, "HT-29 cells": {"test_system": "HT-29 cells", "test": "Growth inhibition of HT-29 cells", "type": "cell-based, human", "settings": "HT-29"}}}
{"smiles": "CC1=C(CC(=O)O)c2cc(F)ccc2/C1=C\\c1ccc(S(C)(=O)=O)cc1", "note": "[Exisulind, 5-fluoro-2-methyl-1-(p-methylsulfonylbenzylidene)-3-indenylacetic acid]", "values": [{"measurement": "β-catenin level by Western blot", "setting": "β-catenin in SW480 cells", "result": "drop of β-catenin"}, {"measurement": "selectivity cGMP PDE over PDE4", "setting": "cGMP PDE", "result": "selectivity for the cGMP PDE isoenzyme forms over PDE4 isoforms"}, {"measurement": "number of polyps relative to placebo, 12 months", "setting": "[1]; entire 12 months", "result": "approximately half"}, {"measurement": "median number of polyps, 12 months", "setting": "[1]; entire 12 months, placebo 38 polyps/year", "result": 18, "unit": "polyps/year"}, {"measurement": "number of polyps relative to placebo, first six months", "setting": "[1]; first six months", "result": "approximately one-third"}, {"measurement": "median number of polyps, first six months", "setting": "[1]; first six months, placebo 26 polyps/year", "result": 9, "unit": "polyps/year"}, {"measurement": "decrease of rate of polyp formation", "setting": "[1]; vs placebo", "result": "clinically and statistically significantly better than placebo in decreasing the rate of polyp formation"}, {"measurement": "PKG activity relative to control", "setting": "[2]", "result": "causes PKG activity to increase in a dose-dependent manner"}, {"measurement": "PKG activity relative to control", "setting": "[3]", "result": "phosphorylated to a greater extent than the corresponding controls"}, {"measurement": "tumor cell growth inhibition", "setting": "HT-29 cells", "result": "capable of inhibiting tumor cell growth"}]}
